Patent publication US8143422B2, “Benzimidazole derivatives” (Hoffmann-La Roche Inc., priority 2008, dated 2012)

Each molecule was assayed against T1, FXR ligand binding domain (GST-FXR LBD fusion protein) (Homo sapiens, UniProt Q96RI1) (assay: Radioligand binding assay (scintillation proximity, radioligand displacement)). Conditions: GST-FXR LBD on SPA beads, 20 nM radioligand, test compound 6×10^−9 M to 2.5×10^−5 M.
T1 construct: made in house; host or cells: E. coli BL21(pLysS)
T1 sequence (Q96RI1 193-472 isoform Q96RI1-2 limits assumed): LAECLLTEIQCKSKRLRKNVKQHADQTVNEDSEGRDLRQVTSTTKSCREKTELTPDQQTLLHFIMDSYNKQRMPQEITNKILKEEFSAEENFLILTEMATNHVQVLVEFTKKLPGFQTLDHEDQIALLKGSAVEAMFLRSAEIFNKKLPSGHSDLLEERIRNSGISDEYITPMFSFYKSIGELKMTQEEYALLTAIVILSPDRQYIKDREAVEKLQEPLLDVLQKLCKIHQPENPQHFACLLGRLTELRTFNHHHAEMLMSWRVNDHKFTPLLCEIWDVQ
Experimental: The following tests were carried out in order to determine the activity of the compounds of formula (I). Background information on the binding assay can be found in: Nichols J S et al. “Development of a scintillation proximity assay for peroxisome proliferator-activated receptor gamma ligand binding domain”, (1998) Anal. Biochem. 257: 112-119.
Bacterial and mammalian expression vectors were constructed to produce glutathione-s-transferase (GST) and Gal4 DNA binding domain (GAL) proteins fused to the ligand binding domain (LBD) of human FXR (aa 193-473). To accomplish this, the portions of the sequences encoding the FXR LBD were amplified by polymerase chain reaction (PCR) from a full-length clone by PCR and then subcloned into the plasmid vectors. The final clone was verified by DNA sequence analysis.
The induction, expression, and subsequent purification of GST-LBD fusion protein was performed in E. coli strain BL21(pLysS) cells by standard methods (Current Protocols in Molecular Biology, Wiley Press, ed. Ausubel et al.).
Radioligand Binding Assay
Binding of test substances to the FXR ligand binding domain was assessed in a radioligand displacement assay. The assay was performed in a buffer consisting of 50 mM Hepes, pH 7.4, 10 mM NaCl, 5 mM MgCl2, 0.01% CHAPS. For each reaction well in a 96-well plate, 40 nM of GST-FXR LBD fusion protein was bound to 10 μg glutathione ytrium silicate SPA beads (PharmaciaAmersham) in a final volume of 50 μl by shaking. A radioligand (e.g., 20 nM of 2,N-dicyclohexyl-2-[2-(2,4 dimethoxy-phenyl)-benzoimidazol-1-yl]-acetamide) and test compounds were added, and scintillation proximity counting was performed. All binding assays were performed in 96-well plates and the amount of bound ligand was measured on a Packard TopCount using OptiPlates (Packard). Dose response curves were performed within a range of test compound concentrations from 6×10^−9 M to 2.5×10^−5 M and IC50 values were calculated.

Molecule	IC50 [nM]
CO[C@H](c1ccccc1)c1nc2cc(F)ccc2n1C(C(=O)N[C@H]1CC[C@H](C(=O)O)CC1)C1CCCCC1 (stereo partly drawn) [Example 12, trans-4-{2-Cyclohexyl-2-[5-fluoro-2-((R)-methoxy-phenyl-methyl)-benzoimidazol-1-yl]-acetylamino}-cyclohexanecarboxylic acid]	6800
CO[C@H](c1ccccc1)c1nc2cc(F)c(F)cc2n1[C@@H](C(=O)Nc1ccc(C(=O)O)cc1F)C1CCCCC1 (single isomer, unassigned) [Example 4A]	500
CO[C@@H](c1ccccc1)c1nc2cc(F)c(F)cc2n1[C@@H](C(=O)Nc1ccc(C(=O)O)cc1)C1CCCCC1 (single isomer, unassigned) [Example 1A]	1900
CO[C@H](c1ccccc1)c1nc2cc(F)c(F)cc2n1[C@H](C(=O)Nc1ccc(C(=O)O)cc1)C1CCCCC1 (single isomer, unassigned) [Example 2B]	300
CO[C@@H](c1ccccc1)c1nc2cc(F)c(F)cc2n1[C@H](C(=O)Nc1ccc(C(=O)O)cc1)C1CCCCC1 (single isomer, unassigned) [Example 1B]	1000
CO[C@@H](c1ccccc1)c1nc2cc(F)c(F)cc2n1[C@H](C(=O)Nc1ccc(C(=O)O)cc1F)C1CCCCC1 (single isomer, unassigned) [Example 3B]	400
CO[C@H](c1ccccc1)c1nc2cc(F)c(F)cc2n1[C@H](C(=O)Nc1ccc(C(=O)O)cc1F)C1CCCCC1 (single isomer, unassigned) [Example 4B]	30
CO[C@H](c1ccccc1)c1nc2cc(F)c(F)cc2n1[C@@H](C(=O)Nc1ccc(C(=O)O)cc1)C1CCCCC1 (single isomer, unassigned) [Example 2A]	1600
CO[C@@H](c1ccccc1)c1nc2cc(F)c(F)cc2n1[C@@H](C(=O)Nc1ccc(C(=O)O)cc1F)C1CCCCC1 (single isomer, unassigned) [Example 3A]	500
CO[C@H](c1ccccc1)c1nc2cc(F)ccc2n1C(C(=O)N[C@H]1CC[C@H](CC(=O)O)CC1)C1CCCCC1 (stereo partly drawn) [Example 11, (trans-4-{2-Cyclohexyl-2-[5-fluoro-2-((R)-methoxy-phenyl-methyl)-benzoimidazol-1-yl]-acetylamino}-cyclohexyl)-acetic acid]	21000

More lines, now with the values ahead:

IC50 [nM]	Molecule
60	CO[C@H](c1ccccc1)c1nc2cc(F)c(F)cc2n1[C@H](C(=O)Nc1ccc(C(=O)O)cc1C)C1CCCCC1 (single isomer, unassigned) [Example 6B]
100	6-{(S)-2-Cyclohexyl-2-[5,6-difluoro-2-((S)-methoxy-phenyl-methyl)-benzoimidazol-1-yl]-acetylamino}-nicotinic acid [Example 10B]
5000	CO[C@H](c1ccccc1)c1nc2cc(F)c(F)cc2n1[C@@H](C(=O)Nc1ccc(C(=O)O)cc1C)C1CCCCC1 (single isomer, unassigned) [Example 6A]
300	CO[C@@H](c1ccccc1)c1nc2cc(F)c(F)cc2n1[C@@H](C(=O)Nc1ccc(C(=O)O)cc1Cl)C1CCCCC1 (single isomer, unassigned) [Example 7A]
200	6-{(R)-2-Cyclohexyl-2-[5,6-difluoro-2-((S)-methoxy-phenyl-methyl)-benzoimidazol-1-yl]-acetylamino}-nicotinic acid [Example 10A]
1100	CO[C@@H](c1ccccc1)c1nc2cc(F)c(F)cc2n1[C@H](C(=O)Nc1ccc(C(=O)O)cc1C)C1CCCCC1 (single isomer, unassigned) [Example 5B]
400	CO[C@H](c1ccccc1)c1nc2cc(F)c(F)cc2n1[C@@H](C(=O)Nc1ccc(C(=O)O)cc1Cl)C1CCCCC1 (single isomer, unassigned) [Example 8A]
60	CO[C@H](c1ccccc1)c1nc2cc(F)c(F)cc2n1[C@H](C(=O)Nc1ccc(C(=O)O)cc1Cl)C1CCCCC1 (single isomer, unassigned) [Example 8B]
1700	CO[C@@H](c1ccccc1)c1nc2cc(F)c(F)cc2n1[C@@H](C(=O)Nc1ccc(C(=O)O)cn1)C1CCCCC1 (single isomer, unassigned) [Example 9A]
20	CO[C@@H](c1ccccc1)c1nc2cc(F)c(F)cc2n1[C@H](C(=O)Nc1ccc(C(=O)O)cc1Cl)C1CCCCC1 (single isomer, unassigned) [Example 7B]
2600	CO[C@@H](c1ccccc1)c1nc2cc(F)c(F)cc2n1[C@H](C(=O)Nc1ccc(C(=O)O)cn1)C1CCCCC1 (single isomer, unassigned) [Example 9B]
300	CO[C@@H](c1ccccc1)c1nc2cc(F)c(F)cc2n1[C@@H](C(=O)Nc1ccc(C(=O)O)cc1C)C1CCCCC1 (single isomer, unassigned) [Example 5A]
